{
  "source": "patent US8956641B2",
  "about": "“Alpha adrenergic receptor agonists for treatment of inflammatory diseases” (Warsaw Orthopedic, Inc., priority 2008, dated 2015)",
  "system": "Rat Chronic Constriction Injury Model (neuropathic pain)",
  "conditions": "clonidine subcutaneously 0.02 mg/kg/day; FIG. 4",
  "description": "The inventors evaluated the efficacy of a five Month Clonidine/Polymer Drug Depot in the Rat Chronic Constriction Injury Model. The animal model was the Bennett Model (Wistar rat). The purpose: To determine whether a five month polymer clonidine-eluting depot can improve pain associated behavioral responses in a rat model of neuropathic pain.\nExperimental Design: Four loose chromic gut ligatures, 1 mm apart, were tied around the common sciatic nerve at mid-thigh. Each animal received treatment of test or control article-according to the dosing described in Table 5.\nThe inventors have conducted the present study for a period of 64 days and have employed the following two tests: (1) the Hargreaves test; and (2) the von Frey test. The Hargreaves Tests of Thermal Hyperalgesia were conducted on days 7, 14, 21, 28, 35, 42, 49, 56 and 63. The von Frey monofilament test of mechanical allodynia (performed the day following Thermal testing) were conducted on days-8, 15, 22, 29, 36, 43, 50, 57 and 64.",
  "data": [
    {"smiles": "Clc1cccc(Cl)c1N=C1NCCN1", "note": "[clonidine, 2,6-dichloro-N2-imidazolidinyldenebenzenamine]", "values": [
      {"measurement": "pain behavioral response (percentage of baseline) for mechanical allodynia compared to unloaded polymer depots", "result": "reduced the behavioral response"}
    ]}
  ]
}
